In US12527774B2, “Estrogen-related receptor alpha modulators” (LEAD PHARMA HOLDING B.V., priority 2019, dated 2026):

Experiments:
[1] = target: ERRα ligand binding domain (ERRα-LBD) (Homo sapiens (Human), UniProt P11474); experiment: ERRα AlphaScreen Assay; format: biochemical; conditions: disruption of binding of ERRα-LBD protein to biotin-PGC1α-3 co-activator peptide; for IC50: read-out: mean pIC50 (converted)
How it was run: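 His-SUMO-tagged ERRα-LBD from E. coli (0.81 nM) preincubated 1 h at room temperature with compound, streptavidin donor and Ni-chelate acceptor beads (10 μg/mL each), then 2 h with 15 nM biotin-PGC1α-3 peptide (aa 202–220). Buffer: 50 mM Tris-HCl pH 7.5, 100 mM NaCl, 5 mM TCEP, 1% DMSO. Four-parameter IC50; mean pIC50 of replicate values.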

full length ERRα = full length ERRα (Homo sapiens (Human), UniProt P11474); experiment: Full Length ERRα Reporter Gene Assay; format: cell-based; conditions: SK-BR-3 cells, ERRα-RE luciferase reporter, overnight incubation; read-out: mean pIC50 (converted)
Sequence of full length ERRα (P11474 whole entry): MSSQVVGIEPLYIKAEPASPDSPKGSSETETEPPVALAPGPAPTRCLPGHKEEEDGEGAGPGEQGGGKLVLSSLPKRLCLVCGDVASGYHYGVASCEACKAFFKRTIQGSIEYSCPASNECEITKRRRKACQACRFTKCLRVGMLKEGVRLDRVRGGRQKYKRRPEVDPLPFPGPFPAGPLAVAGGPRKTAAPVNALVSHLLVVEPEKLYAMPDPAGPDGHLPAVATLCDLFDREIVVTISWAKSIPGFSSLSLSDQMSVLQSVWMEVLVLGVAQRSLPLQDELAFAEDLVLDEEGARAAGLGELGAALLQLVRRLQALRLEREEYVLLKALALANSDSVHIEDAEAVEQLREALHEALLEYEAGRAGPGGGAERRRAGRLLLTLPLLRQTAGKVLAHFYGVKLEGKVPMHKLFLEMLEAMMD
From the text: Full Length ERRα Reporter Gene Assay
A method was established to quantitatively screen the potency of compounds with inverse agonistic activity on the nuclear receptor ERRα of the human species. The assay allows intra-cellular screening of ERRα inverse agonists in SK-BR-3 cells using an over-expression construct coding full length ERRα and a reporter construct containing an ERRα Response Element (RE) and a luciferase gene for read out. The activity is expressed in log IC50 values and can be used to determine SAR of compound families or to de-select compounds.
In this assay, reporter cells are obtained by transient co-transfection of two constructs in SK-BR-3 cells using standard transfection techniques. The first construct contains a response element of the nuclear receptor ERRα (Plasmid pLP2175, Reporter construct ERRα-RE/luc2P, cloned variant of ERRα_v2_synthRE, Switchgear Genomics, Catalog Number S900089). This sequence drives the transcription of the luciferase reporter gene in response to binding of an ERRα protein encoded by the second construct (Plasmid pLP2124: full length ERRα expression construct using pcDNA3.1/Hygro(+) as background, Invitrogen Catalog Number V87020).
The day after transfection, cells were plated into 96 well plates, test compound was added and the plates were incubated overnight. Subsequently, the firefly luciferase activity was quantified using luciferase detection reagent and luminescence readout.
Detailed Assay Description
Transfection is performed on pre-seeded SK-BR-3 cells in a T175 flask. One transfected T175 flask is sufficient for seeding 3 to 4 MW96 plates the next day, depending on the confluency of the transfected cells.
Two different media are used in this protocol for cell treatment: 1) Culture medium, i.e. McCoy's 5a with phenol red (BioWhittaker Supplier Number 12-688F), 10% FBS and 1× Penstrep.; and, 2) Assay medium, i.e. McCoy's 5a Medium phenol red free (HyClone Product Code SH30270.01) with 2% Charcoal Stripped FBS and 1× Penstrep. Compound dilutions are prepared in assay medium.
Cells are seeded at least 2 days in advance to allow the cells to adhere well to flask before transfection. Cells should be 50-80% confluent at the day of transfection.
SKBR3 cells were transfected with the transcriptional reporter construct pLP2175 and the ERRα expression construct pLP2124 (as described above).
68 μL of Lipofectamine LTX transfection reagent (Invitrogen Catalog Number 15338-100) was added dropwise to 8.9 ml Opti-MEM I Reduced Serum Medium (Gibco Catalog Number 51985-026) and incubated at room temperature for 5 to 20 minutes. 8.9 ml of this reagent mixture was added to 22 μg pLP2175+22 μg pLP2124 (ratio 1:1 and total volume 10 ml), and incubated at room temperature for 25 minutes.
10 minutes before adding the transfection mix to SKBR3 cells in a T175 flask, the culture medium was refreshed with 20 mL culture medium. Subsequently, the 10 mL DNA-Opti-MEM-Lipofectamine mixture was gently added to the cells, followed by overnight (16-24 hours) incubation at 37° C. and 5% CO2.
To harvest SKBR3 cells from a T175 flask, first the medium was removed. Subsequently, cells were washed with Phosphate Buffered Saline (PBS) (Lonza), after which the PBS was removed. To dissociate the cells, 2 ml of TrypLE Express (Invitrogen) was added to the flask, followed by incubation at 37° C. for 5 minutes. The flask was tapped until cells were detached from the bottom. Cells were collected in 8 mL of culture medium (McCoy's 5α, 10% FBS, penstrep), to achieve a single cell suspension. After cell count, cells were spun down for 5 minutes at 300 g. Next cell pellets were re-suspended to 25000 cells/80 μl assay medium (McCoy's 5a phenol red free, 2% charcoal stripped FBS, penstrep).
For compound screening, the cells were harvested (as described above). 80 μL of cell suspension (25,000 cells) was plated per well into a white, flat bottom, tissue culture treated, 96 well screening plates (Greiner). […]

Sequence of ERRα ligand binding domain (ERRα-LBD) (P11474 193-421): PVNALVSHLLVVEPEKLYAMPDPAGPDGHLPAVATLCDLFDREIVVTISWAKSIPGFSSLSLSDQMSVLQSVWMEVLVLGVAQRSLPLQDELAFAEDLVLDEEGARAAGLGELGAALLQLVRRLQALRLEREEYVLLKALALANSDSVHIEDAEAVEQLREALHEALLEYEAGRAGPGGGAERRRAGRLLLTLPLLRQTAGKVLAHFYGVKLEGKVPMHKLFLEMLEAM

mean pIC50 [1] | IC50 (full length ERRα) | IC50 [1] | SMILES
≥ 8 | ≤ 0.316 µM |  | COc1cc(C2CC(=O)Nc3n[nH]cc32)ccc1OCc1ccc(C(F)(F)F)cc1C(F)(F)F (stereo not drawn) [Example 8, 4-(4-{[2,4-bis(trifluoromethyl)phenyl]methoxy}-3-methoxyphenyl)-2H,4H,5H,6H, 7H-pyrazolo[3,4-b]pyridin-6-one]
≥ 8 | ≤ 0.316 µM |  | CCc1ccc(COc2ccc(-c3cc(=O)[nH]c4n[nH]cc34)cc2OC)c(C(F)(F)F)c1 [Example 175, 4-(4-{[4-ethyl-2-(trifluoromethyl)phenyl]methoxy}-3-methoxyphenyl)-2H,6H, 7H-pyrazolo[3,4-b]pyridin-6-one]
≥ 8 | ≤ 0.316 µM |  | COc1cc(-c2cc(=O)[nH]c3n[nH]cc23)ccc1OCc1ccccc1C(F)(F)F [Example 169, 4-(3-methoxy-4-{[2-(trifluoromethyl)phenyl]methoxy}phenyl)-2H,6H,7H-pyrazolo[3,4-b]pyridin-6-one]
 | ≤ 0.316 µM | 0.1 to 1 µM | COc1cc(C2CC(=O)Nc3n[nH]cc32)ccc1OCc1ccc(CCN)cc1C(F)(F)F (stereo not drawn) [Example 150, 4-(4-{[4-(2-aminoethyl)-2-(trifluoromethyl)phenyl]methoxy}-3-methoxyphenyl)-2H,4H,5H,6H, 7H-pyrazolo[3,4-b]pyridin-6-one]
≥ 8 | ≤ 0.316 µM |  | C=CCc1ccc(COc2ccc(C3CC(=O)Nc4n[nH]cc43)cc2OC)c(C(F)(F)F)c1 (stereo not drawn) [Example 142, 4-(3-methoxy-4-{[4-(prop-2-en-1-yl)-2-(trifluoromethyl)phenyl]methoxy}phenyl)-2H,4H,5H,6H,7H-pyrazolo[3,4-b]pyridin-6-one]
≥ 8 | ≤ 0.316 µM |  | COc1ccc(COc2ccc(C3CC(=O)Nc4n[nH]cc43)cc2OC)c(C(F)(F)F)c1 (stereo not drawn) [Example 19, 4-(3-methoxy-4-{[4-methoxy-2-(trifluoromethyl)phenyl]methoxy}phenyl)-2H,4H,5H,6H,7H-pyrazolo[3,4-b]pyridin-6-one]
≥ 8 | ≤ 0.316 µM |  | COc1cc(C2CC(=O)Nc3n[nH]cc32)ccc1OCc1cccc(OC)c1C(F)(F)F (stereo not drawn) [Example 36, 4-(3-methoxy-4-{[3-methoxy-2-(trifluoromethyl)phenyl]methoxy}phenyl)-2H,4H,5H,6H,7H-pyrazolo[3,4-b]pyridin-6-one]
≥ 8 | ≤ 0.316 µM |  | CCc1ccc(COc2ccc(C3CC(=O)Nc4n[nH]cc43)cc2OC)c(C(F)(F)F)c1 (stereo not drawn) [Example 144, 4-(4-{[4-ethyl-2-(trifluoromethyl)phenyl]methoxy}-3-methoxyphenyl)-2H,4H,5H,6H, 7H-pyrazolo[3,4-b]pyridin-6-one]
 | ≤ 0.316 µM | ≤ 0.01 µM | COc1cc(C2CC(=O)Nc3n[nH]cc32)ccc1COc1ccc(Br)cc1C(F)(F)F (stereo not drawn) [Example 96, 4-(4-{[4-bromo-2-(trifluoromethyl)phenoxy]methyl}-3-methoxyphenyl)-2H,4H,5H,6H, 7H-pyrazolo[3,4-b]pyridin-6-one]
≥ 8 | ≤ 0.316 µM |  | COc1cc(C2CC(=O)Nc3n[nH]cc32)ccc1OCc1ccccc1C(F)(F)F (stereo not drawn) [Example 1, 4-(3-methoxy-4-{[2-(trifluoromethyl)phenyl]methoxy}phenyl)-2H,4H,5H,6H, 7H-pyrazolo[3,4-b]pyridin-6-one]
≥ 8 | ≤ 0.316 µM |  | COc1cc(C2CC(=O)Nc3n[nH]cc32)ccc1OCc1ccc(CC(O)CO)cc1C(F)(F)F (stereo not drawn) [Example 143, 4-(4-{[4-(2,3-dihydroxypropyl)-2-(trifluoromethyl)phenyl]methoxy}-3-methoxyphenyl)-2H,4H,5H,6H, 7H-pyrazolo[3,4-b]pyridin-6-one]
≥ 8 | ≤ 0.316 µM |  | COc1ccc(COc2ccc(-c3cc(=O)[nH]c4n[nH]cc34)cc2OC)c(C(F)(F)F)c1 [Example 170, 4-(3-methoxy-4-{[4-methoxy-2-(trifluoromethyl)phenyl]methoxy}phenyl)-2H,6H, 7H-pyrazolo[3,4-b]pyridin-6-one]
